Like-named read-outs stand apart in the source and are kept apart here.
Tests used:
Test in all cases: Test B pre-/postemergence plant response
Assay type in all cases: in vivo
wild oat (Avena fatua) = conditions: Preemergence
Procedure, shortened: (§1)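 Visual scoring from 0 (no effect) to 100 (complete control) against untreated controls was done 13 to 15 days after greenhouse treatment. Chemicals were formulated in a surfactant-containing non-phytotoxic solvent and applied to soil preemergence or to 1- to 4-leaf (2-18 cm) plants postemergence.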

[1] = test system: surinam grass (Brachiaria decumbens); conditions: for pest or weed control at 31 g/ha / pest or weed control at 62 g/ha: Urochloa decumbens, read-out: Plant response rating, Surinam Grass; for pest or weed control at 31 g/ha: 31 g ai/ha; for pest or weed control at 62 g/ha: 62 g ai/ha, 100 complete control
Procedure, shortened: as §1

[2] = test system: blackgrass (Alopecurus myosuroides); conditions: for pest or weed control at 31 g/ha: 31 g ai/ha; for pest or weed control at 62 g/ha: 62 g ai/ha, 100 complete control
Procedure, shortened: as §1

[3] = test system: wheat (Triticum aestivum); conditions: for plant injury at 31 g/ha / plant injury at 62 g/ha: Triticum aestivum, read-out: Plant response rating, Wheat; for plant injury at 31 g/ha: 31 g ai/ha; for plant injury at 62 g/ha: 62 g ai/ha, 100 complete control
Procedure, shortened: as §1

[4] = test system: common ragweed (Ambrosia elation); conditions: for pest or weed control at 31 g/ha / pest or weed control at 62 g/ha: Ambrosia, read-out: Plant response rating, Ragweed; for pest or weed control at 31 g/ha: 31 g ai/ha; for pest or weed control at 62 g/ha: 62 g ai/ha, 100 complete control
Procedure, shortened: as §1

[5] = test system: woolly cupgrass (Eriochloa villosa); conditions: for pest or weed control at 31 g/ha: 31 g ai/ha; for pest or weed control at 62 g/ha: 62 g ai/ha, 100 complete control
Procedure, shortened: as §1

[6] = test system: downy bromegrass (Bromus tectorum); conditions: for pest or weed control at 31 g/ha: 31 g ai/ha; for pest or weed control at 62 g/ha: 62 g ai/ha, 100 complete control
Procedure, shortened: as §1

[7] = 8 g ai/ha, postemergence, 0-100 scale
[8] = 16 g ai/ha, postemergence, 0-100 scale
[9] = Preemergence, 8 g ai/ha, scale 0 to 100 (0 no effect, 100 complete control)
[10] = Preemergence, 16 g ai/ha, scale 0 to 100
[11] = post-emergence, Postemergence, scale 0 to 100
[12] = post-emergence, Postemergence, scale 0 to 100, 0 no effect
[13] = pre-emergence, Preemergence, scale 0 to 100 (0 no effect, 100 complete control)
[14] = pre-emergence, Preemergence, 0 to 100 scale, 0 no effect

Cc1nn(C)c(=O)c(-c2nc(-c3ccc(Cl)cc3)sc2C)c1O [Compound 79, 4-[2-(4-chlorophenyl)-5-methyl-4-thiazolyl]-5-hydroxy-2,6-dimethyl-3(2H)-pyridazinone]
Oat, Wild plant response rating (wild oat (Avena fatua); 8 g ai/ha, scale 0 to 100 (0 no effect, 100 complete control)): 0 | Oat, Wild plant response rating (wild oat (Avena fatua); 16 g ai/ha, scale 0 to 100): 0 | Surinam Grass plant response rating [1, 7]: 65 | Surinam Grass plant response rating [1, 8]: 70 | Surinam Grass plant response rating [1, 9]: 75 | Surinam Grass plant response rating [1, 10]: 85 | pest or weed control at 31 g/ha [1, 11]: 75% | pest or weed control at 62 g/ha [1, 12]: 85% | pest or weed control at 31 g/ha [1, 13]: 100% | pest or weed control at 62 g/ha [1, 14]: 100% | Blackgrass plant response rating [2, 7]: 50 | pest or weed control at 16 g/ha ([2]; Alopecurus myosuroides, post-emergence, Postemergence, 16 g ai/ha, scale 0 to 100, read-out: Plant response rating, Blackgrass): 50% | pest or weed control at 31 g/ha ([2]; Alopecurus myosuroides, post-emergence, Postemergence, scale 0 to 100, read-out: Plant response rating, Blackgrass): 90% | pest or weed control at 62 g/ha ([2]; Alopecurus myosuroides, post-emergence, Postemergence, scale 0 to 100, 0 no effect, read-out: Plant response rating, Blackgrass): 98% | pest or weed control at 31 g/ha ([2]; Alopecurus myosuroides, pre-emergence, Preemergence, scale 0 to 100 (0 no effect, 100 complete control), read-out: Plant response rating, Blackgrass): 98% | pest or weed control at 62 g/ha ([2]; Alopecurus myosuroides, pre-emergence, Preemergence, 0 to 100 scale, 0 no effect, read-out: Plant response rating, Blackgrass): 100% | Blackgrass plant response rating [2, 9]: 85 | Blackgrass plant response rating [2, 10]: 85 | Wheat plant response rating [3, 7]: 0 | Wheat plant response rating [3, 8]: 20 | Wheat plant response rating [3, 9]: 0 | Wheat plant response rating [3, 10]: 0 | plant injury at 31 g/ha [3, 11]: 60% | plant injury at 62 g/ha [3, 12]: 85% | plant injury at 31 g/ha [3, 13]: 0% | plant injury at 62 g/ha [3, 14]: 0% | Ragweed plant response rating [4, 7]: 0 | Ragweed plant response rating [4, 8]: 0 | pest or weed control at 31 g/ha [4, 11]: 0% | pest or weed control at 62 g/ha [4, 12]: 0% | pest or weed control at 31 g/ha [4, 13]: 0% | pest or weed control at 62 g/ha [4, 14]: 0% | Ragweed plant response rating [4, 9]: 0 | Ragweed plant response rating [4, 10]: 0 | Cupgrass, Woolly plant response rating [5, 7]: 60 | pest or weed control at 16 g/ha ([5]; Eriochloa villosa, post-emergence, Postemergence, 16 g ai/ha, scale 0 to 100, read-out: Plant response rating, Cupgrass, Woolly): 65% | pest or weed control at 31 g/ha ([5]; Eriochloa villosa, post-emergence, Postemergence, scale 0 to 100, read-out: Plant response rating, Cupgrass, Woolly): 75% | pest or weed control at 62 g/ha ([5]; Eriochloa villosa, post-emergence, Postemergence, scale 0 to 100, 0 no effect, read-out: Plant response rating, Cupgrass, Woolly): 80% | pest or weed control at 31 g/ha ([5]; Eriochloa villosa, pre-emergence, Preemergence, scale 0 to 100 (0 no effect, 100 complete control), read-out: Plant response rating, Cupgrass, Woolly): 100% | pest or weed control at 62 g/ha ([5]; Eriochloa villosa, pre-emergence, Preemergence, 0 to 100 scale, 0 no effect, read-out: Plant response rating, Cupgrass, Woolly): 100% | Cupgrass, Woolly plant response rating [5, 9]: 20 | Cupgrass, Woolly plant response rating [5, 10]: 65 | Bromegrass, Downy plant response rating [6, 7]: 0 | pest or weed control at 16 g/ha ([6]; Bromus tectorum, post-emergence, Postemergence, 16 g ai/ha, scale 0 to 100, read-out: Plant response rating, Bromegrass, Downy): 0% | pest or weed control at 31 g/ha ([6]; Bromus tectorum, post-emergence, Postemergence, scale 0 to 100, read-out: Plant response rating, Bromegrass, Downy): 30% | pest or weed control at 62 g/ha ([6]; Bromus tectorum, post-emergence, Postemergence, scale 0 to 100, 0 no effect, read-out: Plant response rating, Bromegrass, Downy): 50% | pest or weed control at 31 g/ha ([6]; Bromus tectorum, pre-emergence, Preemergence, scale 0 to 100 (0 no effect, 100 complete control), read-out: Plant response rating, Bromegrass, Downy): 55% | pest or weed control at 62 g/ha ([6]; Bromus tectorum, pre-emergence, Preemergence, 0 to 100 scale, 0 no effect, read-out: Plant response rating, Bromegrass, Downy): 80% | Bromegrass, Downy plant response rating [6, 9]: 0 | Bromegrass, Downy plant response rating [6, 10]: 0
